Experimental findings from US8178506B2, “Oligomeric compounds and compositions for use in modulation of small non-coding RNAs” (Regulus Therapeutics Inc., priority 2003, dated 2012) are described below.

The test system of one data set is HeLa cells. Put plainly: Cell cycle assay in HeLa cells. Format: cell-based, human. The settings on record: for % cells in cell cycle phase: G1 / % cells in cell cycle phase: G2/M / % cells in cell cycle phase: S / % cells in cell cycle phase: aneuploid / % cells in cell cycle phase: subG1: 48 hours after treatment, relative to untreated control (UTC=100); for phase of the cell cycle in which cells arrest or delay: HeLa.

For another data set, the system named is A549 cells. The data set can be described thus: Cell cycle assay in A549 cells. The settings on record: for % cells in cell cycle phase: G1 / % cells in cell cycle phase: G2/M / % cells in cell cycle phase: S / % cells in cell cycle phase: aneuploid / % cells in cell cycle phase: subG1: A549 cells, relative to the untreated control cells in that phase; for % cells in cell cycle phase: G1 / % cells in cell cycle phase: G2/M / % cells in cell cycle phase: S / % cells in cell cycle phase: aneuploid / % cells in cell cycle phase: subG1 / cell cycle delay or arrest (G2/M), dose response: 24 hours; for G2/M delay or arrest, dose response / cell cycle delay or arrest (G2/M), dose response: A549, 25-, 50-; for G2/M delay or arrest, dose response: 100-, or 150 nM; for cell cycle delay or arrest (G2/M), dose response: 100- or 150 nM. Type of data set: cell-based, human. Here is the method:
In accordance with the present invention, certain oligomeric compounds targeting miRNAs were selected for dose response studies. Using the cell cycle assay described above, the cell cycle profiles of HeLa or A549 cells treated with varying concentrations of oligomeric compounds of the present invention were assessed.
Concomittent decreases in the percentage of cells in G1-phase of the cell cycle and increases in the percentage of hypodiploid (subG1) cells were also observed.
In a further study, A549 cells were treated with 25-, 50-, 100- or 150 nM of the oligomeric compounds ISIS Numbers 338637 (SEQ ID NO: 464) targeted against mir-96, and ISIS 338769 (SEQ ID NO: 596) targeted against mir-130b, ISIS 338836 (SEQ ID NO: 663) targeted against mir-23a, and ISIS 340350 (SEQ ID NO: 855) targeted against mir-95 (Mourelatos). Cells treated with increasing concentrations of oligomeric compounds were compared to untreated cells, to assess the dose-responsiveness of the observed delay or arrest. The random-mer ISIS 29848 was used as a negative control. Cells were prepared for flow cytometry 24-hours after oligonucleotide treatment. Results of these dose response studies are shown in Table 34, where data are expressed as percentage of cells in each phase relative to the untreated control cells in that phase.

For a further data set, the system named is PEPCK-c. Put plainly: PEPCK-c mRNA expression in HepG2 cells. The settings on record: HepG2, 1 nM insulin, 100 nM. Type of data set: cell-based, human.
For the next data set, the system named is HuVECs. The data set can be described thus: Endothelial tube formation assay in HuVECs. Conditions: 75 nM.
Another data set has as its system T47D cells. Put plainly: Caspase-3 activity assay (apoptosis) in T47D cells. Conditions: caspase assay, 200 nM; conclusion from Tables 9-12.
Where [1] appears, read: HeLa cells, 150 nM oligomeric compound, 24 hours, relative to untreated control (UTC = 100).
Setting [2] is: HeLa cells, 150 nM oligomeric compound.
The mark [3] stands for this setting: HeLa cells, 150 nM, 48 hours, relative to untreated control.

In the oligonucleotide strings, read from the 5' end, every base follows the letter of its sugar. An asterisk marks phosphorothioate; unmarked linkages are phosphodiester. Other units and linkages are bracketed, terminal groups are in braces. A string of capitals states the bases alone. e = 2'-O-(2-methoxyethyl) (MOE); [5mC] = 5-methylcytosine; d = 2'-deoxy (DNA)

In the case of “338836 (antisense TCCTCGGTGGCAGAGCTCAG; all 2'-MOE, all phosphorothioate, methylation of C not given here) [compound 338836]”, in the data set on HeLa cells (setting [1]), the “% cells aneuploid” value was 150%, the “% cells in cell cycle phase G1” value amounted to 185%, the “% cells in cell cycle phase G2/M” value amounted to 105% and the “% cells in cell cycle phase S” value is 53%. In addition, in the data set with HeLa cells (setting [1]), the “% cells in cell cycle phase subG1” value is 153%. In the data set on HeLa cells (setting [2]), the “% cells in cell cycle phase: G1” value is 52%, the “% cells in cell cycle phase: G2/M” value was found to be 169%, the “% cells in cell cycle phase: S” value is 152% and the “% cells in cell cycle phase: aneuploid” value is reported as 165%. Besides, the “% cells in cell cycle phase: subG1” value in the data set with HeLa cells (setting [2]) stood at 811%. Besides, in the data set on HeLa cells (setting [3]), the “% cells in cell cycle phase G1” value was 97%, the “% cells in cell cycle phase G2/M” value was found to be 121%, the “% cells in cell cycle phase S” value was 96% and the “% cells in cell cycle phase aneuploid” value worked out at 114%. The “% cells in cell cycle phase subG1” value in the data set with HeLa cells (setting [3]) is listed as 303%. Besides, in the data set on A549 cells (25 nM), the “% cells in cell cycle phase: G1” value was found to be 97%, the “% cells in cell cycle phase: G2/M” value is reported as 97%, the “% cells in cell cycle phase: S” value is 103% and the “% cells in cell cycle phase: aneuploid” value was determined as 99%. In addition, the “% cells in cell cycle phase: subG1” value with A549 cells (25 nM) came to 76%. For the same substance, in the data set with A549 cells (50 nM), the “% cells in cell cycle phase: G1” value is 113%, the “% cells in cell cycle phase: G2/M” value came out at 98%, the “% cells in cell cycle phase: S” value was 89% and the “% cells in cell cycle phase: aneuploid” value came to 111%. For the same substance, the “% cells in cell cycle phase: subG1” value in the data set with A549 cells (50 nM) came out at 232%. For the same substance, in the data set with A549 cells (100 nM), the “% cells in cell cycle phase: G1” value is on record as 117%, the “% cells in cell cycle phase: G2/M” value came out at 116%, the “% cells in cell cycle phase: S” value is reported as 80% and the “% cells in cell cycle phase: aneuploid” value came out at 153%. The “% cells in cell cycle phase: subG1” value in the data set on A549 cells (100 nM) stood at 68%. For the same substance, in the data set with A549 cells (150 nM), the “% cells in cell cycle phase: G1” value worked out at 117%, the “% cells in cell cycle phase: G2/M” value was found to be 149%, the “% cells in cell cycle phase: S” value amounted to 69% and the “% cells in cell cycle phase: aneuploid” value stood at 114%. Moreover, the “% cells in cell cycle phase: subG1” value in the data set with A549 cells (150 nM) is listed as 178%.

“ISIS 328342: SEQ ID NO: 451, targeting mir-203 (e[5mC]*eA*eA*eT*eT*dG*d[5mC]*dG*d[5mC]*dT*dA*d[5mC]*dA*dG*dA*eA*e[5mC]*eT*eG*eT)”: the “phase of the cell cycle in which cells arrest or delay” value (from here on “phase of the cell cycle”) in the data set with HeLa cells (150 nM, both 24 and 48 hours) is given as “G2/M-phase”. The “G2/M delay or arrest, dose response” value in the data set on A549 cells is “dose-responsive G2/M delay or arrest”. Also, in the data set on PEPCK-c, the “reduction of PEPCK-c mRNA expression” value stood at 61%.

Regarding “ISIS 338836: SEQ ID NO: 663, targeted against mir-23a (TCCTCGGTGGCAGAGCTCAG; all 2'-MOE, all phosphorothioate, methylation of C not given here)”, the “phase of the cell cycle” value with HeLa cells (150 nM, 24 hours) is on record as “G1-phase”; in the data set with HeLa cells (150 nM, 48 hours), “S-phase”. In the data set with A549 cells, the “cell cycle delay or arrest (G2/M), dose response” value (from here on “cell cycle delay or arrest (G2/M)”) is recorded as “dose-responsive delay or arrest”.

Regarding “GCTTCCCAGCGGCCTATAGT (chemistry not given here) [ISIS 338769]”, the “phase of the cell cycle” value with HeLa cells (150 nM, 24 hours) is listed as “G1-phase”; in the data set with HeLa cells (150 nM, 48 hours), “S-phase”. Also, the “cell cycle delay or arrest (G2/M)” value with A549 cells is “dose-responsive delay or arrest”.

Turning to “338637 (antisense TCAGAGCGGAGAGACACAAG; all 2'-MOE, all phosphorothioate, methylation of C not given here) [compound 338637]”, in the data set with HeLa cells (setting [1]), the “% cells aneuploid” value was 188%, the “% cells in cell cycle phase G1” value was 170%, the “% cells in cell cycle phase G2/M” value is 84% and the “% cells in cell cycle phase S” value came to 70%. Besides, in the data set on HeLa cells (setting [1]), the “% cells in cell cycle phase subG1” value was found to be 88%. Besides, in the data set on HeLa cells (setting [2]), the “% cells in cell cycle phase: G1” value is reported as 90%, the “% cells in cell cycle phase: G2/M” value is 117%, the “% cells in cell cycle phase: S” value worked out at 109% and the “% cells in cell cycle phase: aneuploid” value amounted to 210%. Moreover, the “% cells in cell cycle phase: subG1” value with HeLa cells (setting [2]) stood at 239%. In the data set on A549 cells (25 nM), the “% cells in cell cycle phase: G1” value is recorded as 100%, the “% cells in cell cycle phase: G2/M” value is reported as 101%, the “% cells in cell cycle phase: S” value amounted to 99% and the “% cells in cell cycle phase: aneuploid” value came out at 99%. Further, the “% cells in cell cycle phase: subG1” value in the data set on A549 cells (25 nM) worked out at 89%. In the data set with A549 cells (50 nM), the “% cells in cell cycle phase: G1” value came to 110%, the “% cells in cell cycle phase: G2/M” value is 107%, the “% cells in cell cycle phase: S” value was 89% and the “% cells in cell cycle phase: aneuploid” value is 120%. Moreover, in the data set with A549 cells (50 nM), the “% cells in cell cycle phase: subG1” value is 86%. In the data set with A549 cells (100 nM), the “% cells in cell cycle phase: G1” value stood at 126%, the “% cells in cell cycle phase: G2/M” value is 115%, the “% cells in cell cycle phase: S” value is reported as 73% and the “% cells in cell cycle phase: aneuploid” value came out at 146%. For the same substance, in the data set on A549 cells (100 nM), the “% cells in cell cycle phase: subG1” value stood at 67%. Moreover, in the data set with A549 cells (150 nM), the “% cells in cell cycle phase: G1” value is on record as 123%, the “% cells in cell cycle phase: G2/M” value worked out at 144%, the “% cells in cell cycle phase: S” value is listed as 66% and the “% cells in cell cycle phase: aneuploid” value turned out to be 135%. In the data set on A549 cells (150 nM), the “% cells in cell cycle phase: subG1” value came out at 216%.

As to “ISIS 338637: SEQ ID NO: 464, targeted against mir-96 (TCAGAGCGGAGAGACACAAG; all 2'-MOE, all phosphorothioate, methylation of C not given here)”, the “phase of the cell cycle” value in the data set on HeLa cells (150 nM, 24 hours) is reported as “G1-phase”; in the data set on HeLa cells (150 nM, 48 hours) it was “S-phase”. Moreover, the “cell cycle delay or arrest (G2/M)” value with A549 cells is reported as “dose-responsive delay or arrest”.

For “GGCTGTCAATTCATAGGTCAG (anti-miR; chemistry not fully specified) [ISIS 327902]”, the “phase of the cell cycle” value was “G2/M-phase” in the data set with HeLa cells (150 nM, 24 hours); “S- and G2/M-phases” with HeLa cells (150 nM, 48 hours). The “G2/M delay or arrest, dose response” value in the data set on A549 cells is given as “dose-responsive G2/M delay or arrest”. Also, the tube formation entry in the data set on HuVECs is “suppressed tube formation”.

Turning to “ISIS 328383: chimeric 2′-MOE gapmer targeted against the mir-192-1 precursor (eA*eG*eA*eG*eG*dG*dG*dA*dG*dA*d[5mC]*dG*dA*dG*dA*eG*e[5mC]*eA*e[5mC]*eT)”, the “phase of the cell cycle” value with HeLa cells (150 nM, 24 hours) was “G2/M-phase”; with HeLa cells (150 nM, 48 hours) it was “S- and G2/M-phases”. The “apoptosis in T47D cells” value in the data set on T47D cells was “induce apoptosis”. In addition, the “G2/M delay or arrest, dose response” value with A549 cells is reported as “dose-responsive G2/M delay or arrest”.

On to “ISIS 340350: SEQ ID NO: 855, targeted against mir-95 (Mourelatos) (TGCTCAATAAATACCCGTTGAA; all 2'-MOE, all phosphorothioate, methylation of C not given here)”, for which the “phase of the cell cycle” value is recorded as “G1-phase” in the data set with HeLa cells (150 nM, 24 hours) and “S-phase” in the data set on HeLa cells (150 nM, 48 hours). Besides, the “cell cycle delay or arrest (G2/M)” value in the data set on A549 cells was “dose-responsive delay or arrest”.
